Converted amounts (≈) assume the structure as drawn. Each block holds one compound with its values, some of them ahead of it. Starred links: 1 amine or outer side, 2 acyl side, 3 side chain; linkers in the order of their positions; H or OH if unused. Non-standard residues stand in square brackets, D forms with d. Residues, ends and D or L forms follow the SMILES beside them. Groups on a side chain read outwards from the residue. Primed or numbered codes have the meaning given here. ξ: configuration not given here. *: point of attachment. γGlu = O=C(O)[C@H](CCC(=O)[*:2])N[*:1]; αMeF = C[C@](N)(Cc1ccccc1)C(=O)O; ξαMeF = CC(N)(Cc1ccccc1)C(=O)O; αMeK = C[C@](N)(CCCCN)C(=O)O; Lauroyl = CCCCCCCCCCCC(=O)*; ξαMeK = CC(N)(CCCCN)C(=O)O; PEG2′ = not defined here; ξαMeS = CC(N)(CO)C(=O)O; AEEA = NCCOCCOCC(=O)O; Aib = CC(C)(N)C(=O)O
Legend:
physchem = assay: physchem
Source text: A known amount of the permeation enhancer, the peptide, or both were combined with increasing amounts of buffer until the permeation enhancer and/or the peptide were completely solubilized.

Caco-2 cells = assay: Caco-2 study, Permeability (%) of lipidated peptides (Example 3); format: in vitro ADME, human; conditions: 0.1 mg/mL peptide
Source text: The Caco-2 cell line is a continuous cell line of heterogeneous human epithelial colorectal adenocarcinoma cells, which when cultured under specific conditions, become differentiated and polarized such that their phenotype, morphologically and functionally, resembles the enterocytes lining the small intestine. Caco-2 cells express tight junctions, microvilli, and a number of enzymes and transporters that are characteristic of such enterocytes. Caco-2 cells are most commonly used as a tight junction monolayer that provides a physical and biochemical barrier to the passage of drugs and thus serves as an in vitro model of the human small intestinal mucosa to predict the absorption of orally administered drugs. Caco-2 permeability assays were performed by Cyprotex US, LLC (MA, USA) to assess the efficacy of different permeation enhancers. Caco-2 cells were grown on Transwell filters until a transepithelial electric resistance of ˜1000 ohms/cm^2 was achieved. The cells were incubated for three hours with media containing test samples on the apical (top) side of the cell layer, and with blank media on the basolateral (lower) side of the cell layer. Media from the apical and basolateral sides was collected separately after three hours and evaluated for the amount of peptide present on each side. Table 2 gives the permeability coefficient (Papp) of the various test samples, which include the SEQ ID NO:3 GLP-1 peptide in the presence of different excipients.
A following Caco-2 study was performed to evaluate the permeability of different peptides in the presence of various permeation enhancers. Permeability (%) was calculated by dividing the cumulative amount of molecules transported with the original loading amount. Concentrations of peptides in starting sample and apical and basal solutions after incubation for pre-determined periods were analyzed by HPLC. Sodium chenodeoxycholate at 25 mg/mL effected the highest permeability of each tested peptide (Table 4).

[1] = Canine site of absorption study, IntelliCap, SEQ ID NO:5 solution formulations (Example 11); format: in vivo, Beagle dogs; conditions: for bioavailability / AUC(0-t) / Cmax / Tmax: dog; for bioavailability: plasma; for AUC(0-t) / Cmax / Tmax: in vivo
Source text: The IntelliCap® system, an electronic oral drug delivery and monitoring device, was used to determine regional absorption for solution formulations. In the form of a capsule, the IntelliCap® incorporates a microprocessor, battery, pH sensor, temperature sensor, radio frequency (RF) wireless transceiver, fluid pump, and drug reservoir. The IntelliCap® system can determine the drug's position in the gastrointestinal (GI) tract by a pH monitoring sensor in the capsule, thereby eliminating the need for in vivo imaging. This system was employed to assess the site of absorption of GLP-1 peptide analogs in the GI tract following oral delivery to canines (Beagle dogs). Solution formulations without permeation enhancer excipients were used as intravenous (IV) and subcutaneous (SC) controls in the study. In brief, solution formulations were prepared and transferred to the IntelliCap® capsule which was dosed to canines, wherein the formulation was released at a specific site in the GI tract.
An additional site of absorption study was performed to evaluate the best site of absorption of the SEQ ID NO:5 GLP-1 peptide analog solution formulations after oral administration of IntelliCap capsules to canines (Beagle dogs). Delivery of the SEQ ID NO:5 peptide to the proximal small bowel (after pylorus passage), distal small bowel (before ileocecal passage), and proximal colon (after ileocecal passage) were studied.

[2] = 5.0 mg/mL Sodium Chenodeoxycholate
[3] = 25 mg/mL Sodium Chenodeoxycholate
[4] = Intravenous, 0.03 mg/kg, 0.3 mg/mL peptide in 50 mM Tris, 150 mM Mannitol, 0.02% PS80, pH 8.0
[5] = IntelliCap, Distal small bowel, 0.81 mg/kg, 12 mg/mL peptide, 25 mg/mL Na CDC, 12.5 mg/mL PG, pH 8.0
[6] = IntelliCap, Proximal colon, 0.85 mg/kg, 12 mg/mL peptide, 25 mg/mL Na CDC, 12.5 mg/mL PG, pH 8.0
[7] = IntelliCap, Proximal small bowel, 0.86 mg/kg, 12 mg/mL peptide, 25 mg/mL Na CDC, 12.5 mg/mL PG, pH 8.0
[8] = sc, Subcutaneous, 0.03 mg/kg, 0.3 mg/mL peptide in 50 mM Tris, 150 mM Mannitol, 0.02% PS80, pH 8.0

Compound: CCCOC(=O)c1cc(O)c(O)c(O)c1 [Propyl Gallate]
solubility (physchem; pH 5, aqueous buffer, thermodynamic from solid): 3000 µg/mL (≈ 14.1 mM)
solubility (physchem; pH 6, aqueous buffer, thermodynamic from solid): 3000 µg/mL (≈ 14.1 mM)
solubility (physchem; pH 7): 3300 µg/mL (≈ 15.6 mM)
solubility as a function of pH (in words) (physchem; pH 7.5): low solubility at pH 7.5 and above
solubility (physchem; pH 7.5, aqueous buffer, thermodynamic from solid): < 250 µg/mL
solubility (physchem; pH 8, aqueous buffer, thermodynamic from solid): < 250 µg/mL
solubility (physchem; pH 9, aqueous buffer, thermodynamic from solid): < 250 µg/mL

Compound: CC[C@H](C)[C@H](NC(=O)[C@H](Cc1ccccc1)NC(=O)[C@H](CCC(=O)O)NC(=O)[C@H](CCCCNC(=O)COCCOCCNC(=O)COCCOCCNC(=O)CC[C@H](NC(=O)CCCCCCCCCCCCCCCCC(=O)O)C(=O)O)NC(=O)[C@H](C)NC(=O)[C@H](C)NC(=O)[C@H](CCC(=O)O)NC(=O)CNC(=O)[C@H](CCC(=O)O)NC(=O)[C@H](CC(C)C)NC(=O)C(C)(Cc1ccccc1)NC(=O)[C@H](CO)NC(=O)C(C)(CO)NC(=O)[C@@H](NC(=O)[C@H](CC(=O)O)NC(=O)[C@H](CO)NC(=O)[C@@H](NC(=O)C(C)(Cc1ccccc1)NC(=O)[C@H](CO)NC(=O)CNC(=O)[C@H](CCC(=O)O)NC(=O)C(C)(C)NC(=O)[C@@H](N)Cc1c[nH]cn1)[C@@H](C)O)C(C)C)C(=O)N[C@@H](C)C(=O)NC(C)(Cc1ccccc1)C(=O)N[C@H](C(=O)N[C@H](C(=O)NC(C)(CCCCN)C(=O)NCC(=O)NCC(N)=O)C(C)C)C(C)C (stereo partly drawn) [SEQ ID NO: 4, Free-H-[AIB]-EGS-[αMePhe]-TSDV-[αMeSer]-S-[αMePhe]-LEGEAAK[(PEG2)2-γE-Stearate]-EFIA-[αMePhe]-VV-[αMeLys]-GG-amide]
Permeability (%) (Caco-2 cells; [2]): 0%
Permeability (%) (Caco-2 cells; [3]): 14.3%

Compound: Free-H-[AIB]-EGS-[αMePhe]-TSDVSK[(PEG2)2-γE-Lauroyl]-YLEGEAA-[αMeLys]-EFIAWK[(PEG2)2-γE-Lauroyl]-VEGG-amide (H-H[Aib]EGS[αMeF]TSDVSK([PEG2′-PEG2′-γGlu-Lauroyl])YLEGEAA[αMeK]EFIAWK([PEG2′-PEG2′-γGlu-Lauroyl])VEGG-NH2) [SEQ ID NO: 7]
Permeability (%) (Caco-2 cells; [2]): 2.1%
Permeability (%) (Caco-2 cells; [3]): 10.3%

More lines, now with the values ahead:

Permeability (%) (Caco-2 cells; [2]): 3.2%
Permeability (%) (Caco-2 cells; [3]): 10.4%
bioavailability ([1]; Beagle, po, IntelliCap, Distal small bowel, 0.81 mg/kg, 12 mg/mL peptide, 25 mg/mL Na CDC, 12.5 mg/mL PG, pH 8.0): 0.3%
bioavailability ([1]; Beagle, po, IntelliCap, Proximal colon, 0.85 mg/kg, 12 mg/mL peptide, 25 mg/mL Na CDC, 12.5 mg/mL PG, pH 8.0): 2.6%
bioavailability ([1]; Beagle, po, IntelliCap, Proximal small bowel, 0.86 mg/kg, 12 mg/mL peptide, 25 mg/mL Na CDC, 12.5 mg/mL PG, pH 8.0): 0.5%
F [1, 4]: 100%
bioavailability ([1]; beagle, sc, Subcutaneous, 0.03 mg/kg, 0.3 mg/mL peptide in 50 mM Tris, 150 mM Mannitol, 0.02% PS80, pH 8.0): 87%
AUC(0-t) [1, 5]: 166 ng·h/mL
Cmax [1, 5]: 51 ng/mL
Tmax [1, 5]: 15 min
AUC(0-t) [1, 6]: 1500 ng·h/mL
Cmax [1, 6]: 301 ng/mL
Tmax [1, 6]: 15 min
AUC(0-t) [1, 7]: 297 ng·h/mL
Cmax [1, 7]: 75 ng/mL
Tmax [1, 7]: 15 min
AUC(0-t) [1, 4]: 2000 ng·h/mL
Cmax [1, 4]: 449 ng/mL
Tmax [1, 4]: 15 min
AUC(0-t) [1, 8]: 1770 ng·h/mL
Cmax [1, 8]: 144 ng/mL
Tmax [1, 8]: 240 min
Compound: CCCCCCCCCCCC(=O)N[C@@H](CCC(=O)NCCOCCOCC(=O)NCCOCCOCC(=O)NCCCC[C@H](NC(=O)[C@H](C)NC(=O)[C@@H](NC(=O)[C@H](Cc1ccccc1)NC(=O)[C@H](CCC(=O)O)NC(=O)C(C)(CCCCN)NC(=O)[C@H](C)NC(=O)[C@H](C)NC(=O)[C@H](CCC(=O)O)NC(=O)CNC(=O)[C@H](CCC(=O)O)NC(=O)[C@H](CC(C)C)NC(=O)[C@H](Cc1ccc(O)cc1)NC(=O)[C@H](CCCCNC(=O)COCCOCCNC(=O)COCCOCCNC(=O)CC[C@H](NC(=O)CCCCCCCCCCC)C(=O)O)NC(=O)[C@H](CO)NC(=O)[C@@H](NC(=O)[C@H](CC(=O)O)NC(=O)[C@H](CO)NC(=O)[C@@H](NC(=O)C(C)(Cc1ccccc1)NC(=O)[C@H](CO)NC(=O)CNC(=O)[C@H](CCC(=O)O)NC(=O)C(C)(C)NC(=O)[C@@H](N)Cc1c[nH]cn1)[C@@H](C)O)C(C)C)[C@@H](C)CC)C(=O)N[C@H](C(=O)N[C@H](C(=O)N[C@@H](CCC(=O)O)C(=O)NCC(=O)NCC(N)=O)C(C)C)C(C)C)C(=O)O (some centres unmarked) [SEQ ID NO: 5, Free-H-[AIB]-EGS-[αMePhe]-TSDVSK[(PEG2)2-γE-Lauroyl]-YLEGEAA-[αMeLys]-EFIAK[(PEG2)2-γE-Lauroyl]-VVEGG-amide]

Permeability (%) (Caco-2 cells; [2]): 1.7%
Permeability (%) (Caco-2 cells; [3]): 11.6%
Compound: CCCCCCCCCCCC(=O)N[C@@H](CCC(=O)NCCOCCOCC(=O)NCCOCCOCC(=O)NCCCC[C@H](NC(=O)[C@H](CC(=O)O)NC(=O)[C@H](CO)NC(=O)[C@@H](NC(=O)C(C)(Cc1ccccc1)NC(=O)[C@H](CO)NC(=O)CNC(=O)[C@H](CCC(=O)O)NC(=O)C(C)(C)NC(=O)[C@@H](N)Cc1c[nH]cn1)[C@@H](C)O)C(=O)N[C@@H](CO)C(=O)N[C@@H](CO)C(=O)N[C@@H](Cc1ccc(O)cc1)C(=O)N[C@@H](CC(C)C)C(=O)N[C@@H](CCC(=O)O)C(=O)NCC(=O)N[C@@H](CCC(=O)O)C(=O)N[C@@H](C)C(=O)N[C@@H](C)C(=O)NC(C)(CCCCN)C(=O)N[C@@H](CCC(=O)O)C(=O)N[C@@H](Cc1ccccc1)C(=O)N[C@H](C(=O)N[C@@H](CCCCNC(=O)COCCOCCNC(=O)COCCOCCNC(=O)CC[C@H](NC(=O)CCCCCCCCCCC)C(=O)O)C(=O)N[C@@H](Cc1c[nH]c2ccccc12)C(=O)N[C@H](C(=O)N[C@H](C(=O)N[C@@H](CCC(=O)O)C(=O)NCC(=O)NCC(N)=O)C(C)C)C(C)C)[C@@H](C)CC)C(=O)O (some centres unmarked) [SEQ ID NO: 8] (H-H[Aib]EGS[ξαMeF]TSDK([AEEA-AEEA-γGlu-Lauroyl])SSYLEGEAA[ξαMeK]EFIK([AEEA-AEEA-γGlu-Lauroyl])WVVEGG-NH2)

Permeability (%) (Caco-2 cells; [2]): 3.1%
Permeability (%) (Caco-2 cells; [3]): 13.9%
Compound: CCCCCCCCCCCC(=O)N[C@@H](CCC(=O)NCCOCCOCC(=O)NCCOCCOCC(=O)NCCCC[C@H](NC(=O)[C@H](C)NC(=O)[C@@H](NC(=O)[C@H](Cc1ccccc1)NC(=O)[C@H](CCC(=O)O)NC(=O)C(C)(CCCCN)NC(=O)[C@H](C)NC(=O)[C@H](C)NC(=O)[C@H](CCC(=O)O)NC(=O)CNC(=O)[C@H](CCC(=O)O)NC(=O)[C@H](CCCCNC(=O)COCCOCCNC(=O)COCCOCCNC(=O)CC[C@H](NC(=O)CCCCCCCCCCC)C(=O)O)NC(=O)[C@H](Cc1ccc(O)cc1)NC(=O)[C@H](CO)NC(=O)C(C)(CO)NC(=O)[C@@H](NC(=O)[C@H](CC(=O)O)NC(=O)[C@H](CO)NC(=O)[C@@H](NC(=O)C(C)(Cc1ccccc1)NC(=O)[C@H](CO)NC(=O)CNC(=O)[C@H](CCC(=O)O)NC(=O)C(C)(C)NC(=O)[C@@H](N)Cc1c[nH]cn1)[C@@H](C)O)C(C)C)[C@@H](C)CC)C(=O)N[C@H](C(=O)N[C@H](C(=O)N[C@@H](CCC(=O)O)C(=O)NCC(=O)NCC(N)=O)C(C)C)C(C)C)C(=O)O (some centres unmarked) [SEQ ID NO: 9, Free-H-[AIB]-EGS-[αMePhe]-TSDV-[αMeSer]-SYK[(PEG2)2-γE-Lauroyl]-EGEAA-[αMeLys]-EFIAK[(PEG2)2-γE-Lauroyl]-VVEGG-amide] (H-H[Aib]EGS[ξαMeF]TSDV[ξαMeS]SYK([AEEA-AEEA-γGlu-Lauroyl])EGEAA[ξαMeK]EFIAK([AEEA-AEEA-γGlu-Lauroyl])VVEGG-NH2)

solubility (physchem; pH 5.5): >200000 µg/mL
Compound: C[C@H](CCC(=O)[O-])[C@H]1CC[C@H]2[C@@H]3[C@H](O)C[C@@H]4C[C@H](O)CC[C@]4(C)[C@H]3CC[C@]12C.[Na+] [Sodium Chenodeoxycholate]

Reference: US11173124B2, “Oral delivery of GLP-1 peptide analogs” (MEDIMMUNE LIMITED, priority 2017, dated 2021)
